Laboratory results reported in PubChem BioAssay AID1259411 (Chemical Carcinogenesis Research Information System (CCRIS), 2018).
Active and inactive are the calls of the source. The rule behind the calls is not given here.

System: rodent carcinogenicity bioassays, tumor incidence
Assay: CCRIS carcinogenicity studies
Conditions: Route: ORAL, Dose: 0, Dose: 0
Procedure, shortened: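 NCI-built, expert-reviewed records of carcinogenicity and related test outcomes (mutagenicity, tumor promotion/inhibition) compiled from published and report sources, historical span 1985-2011, not updated.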

Measured: carcinogen call

COc1ccc(C)cc1N
active: Species: MOUSE, Strain/Sex: B6C3F1/FEMALE, 0.22, 0.44% TWA, IN DIET FOR 104 WK (STUDY DURATION: 97-106 WK), 0.22, 0.44% TWA, IN DIET FOR 104 WK (STUDY DURATION: 97-106 WK), Tumor Site: Type of Lesion: LIVER: HEPATOCELLULAR CARCINOMA, HEPATOCELLULAR CARCINOMA OR ADENOMA, URINARY BLADDER: TRANSITIONAL CELL CARCINOMA OR CA active; positive | Species: MOUSE, Strain/Sex: B6C3F1/MALE, 0.22, 0.46% TWA, IN DIET FOR 92-104 WK (STUDY DURATION: 92-106 WK), 0.22, 0.46% TWA, IN DIET FOR 92-104 WK (STUDY DURATION: 92-106 WK), Tumor Site: Type of Lesion: URINARY BLADDER: SQUAMOUS CELL CARCINOMA OR TRANSITIONAL CELL CARCINOMA active; positive | Species: RAT, Strain/Sex: F344/FEMALE, 0.5, 1.0% IN DIET FOR 104 WK (STUDY DURATION: 106 WK), 0.5, 1.0% IN DIET FOR 104 WK (STUDY DURATION: 106 WK), Tumor Site: Type of Lesion: NASAL CAVITY: OLFACTORY NEUROBLASTOMA, URINARY BLADDER: NEOPLASM (NOS) OR PAPILLARY CARCINOMA OR SQUAMOUS CELL CARCINOMA active; positive | Species: RAT, Strain/Sex: F344/MALE, 0.5, 1.0% IN DIET FOR 104 WK (STUDY DURATION: 105-106 WK), 0.5, 1.0% IN DIET FOR 104 WK (STUDY DURATION: 105-106 WK), Tumor Site: Type of Lesion: NASAL CAVITY: NEUROBLASTOMA OR OLFACTORY NEUROBLASTOMA, LIVER: NEOPLASTIC NODULE OR HEPATOCELLULAR CARCINOMA OR MIXED HE active; positive
